Laboratory results from patent US11083735B2, “Methods for treating sleep disorders, sleep disturbances, and related symptoms using aminosterol compositions” (Enterin, Inc., priority 2017, dated 2021).
Values joined by “and” are separate entries in the source; they are usually repeats but may differ in a detail not shown here. Equal entries are not always repeated.

Columns and labels:
[1] = tested on: patients with PD; assay: Phase 2 trial Stage 2: circadian rhythm of wrist skin temperature (I-Button); format: in vivo, human
Method: FIGS. 20A-F show the effect of squalamine (ENT-01) on circadian rhythm. The figures depict the results of circadian non-parametric analysis of wrist skin temperature rhythm throughout each condition (baseline, treatment with highest dose of squalamine (ENT-01) and washout). The following parameters were measured: […] (FIG. 20A), inter-daily stability (IS) (FIG. 20B), relative amplitude (RA) (FIG. 20C), circadian function index (FIG. 20D), M5V (FIG. 20E), which refers to the five consecutive hours with the highest temperature or high somnolence, and L10V (FIG. 20F), which indicates the mean of the ten consecutive hours with lowest temperature or high activation. […] Student's paired t-test, *p<0.05, **p<01, ***p<0.001.Values expressed as mean±SEM (n=12 in each condition).
(6) I-Button Temperature Assessment. […] From the collected data, the mesor, amplitude, acrophase (time of peak temperature), Rayleight test (an index of interdaily stability), mean waveforms are calculated.);
Circadian rhythm of skin temperature was evaluable in 12 patients (i.e., those who had recordings that extended from baseline through washout). Circadian system functionality was evaluated by continuously monitoring wrist skin temperature using a temperature sensor (Thermochron iButton DS1921H; Maxim, Dallas, Tex.) (Sarabia et al. 2008). […]

[2] = tested on: C. elegans model of PD; conditions: cited from earlier work
[3] = Preclinical oral studies in dogs (bioavailability, tolerability)
[4] = tested on: patient with sleeping disorder; assay: Example 2: patient with sleeping disorder and constipation, oral squalamine, sleep diary and I-button; format: in vivo, human
Method: The patient had very significant delay in sleep onset, fragmented sleep, thrashing of arms and legs (RBD) and daytime somnolence. On polysomnography, they had apneic spells up to 17 seconds in duration with an oxygen desaturation as low as 93%. The patient slept no more than 3-4 hours, awakened 3-4 times, and each awakening lasted 30-60 minutes. Medications included clonazepam and laxatives.
Clonazepam and laxatives were discontinued and they were started on 100 mg of squalamine every other day at bedtime. This regimen had no effect on their sleep or constipation. […] They were then switched to 150 mg daily taken in the morning.
The patient's skin temperature was also monitored for fluctuations at the wrist using a temperature sensor (I-button) mounted on a wrist-band. Skin temperature at the wrist increases from about 30° C. during the day to 36° C. at night in normal individuals. This diurnal variation of skin temperature correlates well with sleep-wake cycles. When it reaches 34° C., subjects fall asleep; during the night, if it falls below 34° C., subjects awaken. During the day, skin temperature is below 30° C. and subjects remain awake.
Once the patient's Circadian rhythm was restored, the patient started sleeping better at night and stopped falling asleep during the day.

[5] = tested on: colons from WT (1 yr old FVB/NJ) mice; assay: Isolated colon motility, WT mice; set-up: species or system mouse
From the text: FIGS. 14A-14B show additional effects of squalamine in mice.
(§1) Parkinson's disease is associated with varying degrees of constipation, typically beginning decades before diagnosis, and all too often has a profound negative impact on quality of life. It is believed that the ENS in PD is damaged earlier but by the same processes that damage the neurons of the CNS. In our clinical experience oral administration to several individuals with advanced Parkinson's disease corrected long standing constipation within days of initiation of treatment. We explored whether the human experience could be reproduced in the mouse. In the experiments illustrated below studies of colonic motility were conducted using organs from WT (1 yr old FVB/NJ) or PD mice, in which the murine αSynuclein gene has been excised and replaced by several copies of the human αSynuclein gene driven by the normal murine promoter.
(§2) The isolated colon from the PD strain presents a more sluggish peristaltic wave than that from the WT animal (black columns).

[6] = tested on: colons from PD mice; assay: Isolated colon motility, PD mice (human αSynuclein gene); set-up: species or system mouse
From the text: as §1, §2

[7] = 150 mg daily taken in the morning

CC(C)[C@@H](CC[C@@H](C)[C@H]1CC[C@H]2[C@@H]3[C@H](O)C[C@H]4C[C@@H](NCCCNCCCCN)CC[C@]4(C)[C@H]3CC[C@]12C)OS(=O)(=O)O (single isomer, unassigned; ent-01) [ENT-01]
markers of healthy circadian function (IS, RA, CFI, IV) ([1]; fixed dose vs baseline, 12 patients): improved all markers of healthy circadian function | circadian parameters (IS, CFI) ([1]; wash-out period): improvement persisted | formation of aggregates of αS ([2]; in vivo (Perni et al. 2017)): inhibit the formation of aggregates | tolerability [3]: well tolerated | oral bioavailability ([3]; preclinical studies): about 0.1%

CC(C)[C@@H](CC[C@@H](C)[C@H]1CC[C@H]2[C@@H]3[C@H](O)C[C@H]4C[C@@H](NCCCNCCCCN)CC[C@]4(C)[C@H]3CC[C@]12C)OS(=O)(=O)O [squalamine]
effect on sleep or constipation ([4]; 100 mg every other day at bedtime): no effect | time to fall asleep (I-button) ([4]; 100 mg given at night, FIG. 8A): 2.5 h | total sleep per night (I-button) ([4]; 100 mg given at night, FIG. 8A): 3 h | Delay ([4]; 125 mg switch, days 114-118): 45 min | Fragments awake ([4]; 125 mg switch, days 114-118): 60 min | Total hrs sleep ([4]; 125 mg switch, days 114-118): 7.5 h and 6.5 h and 8.0 h | total hours of sleep (I-button) ([4]; 150 mg): 4 to 5 h | Total hrs sleep ([4]; 150 mg daily am dose, Mean row covers all on-treatment days (pre mean 6.2)): 6.0 h | Fragments awake ([4]; 150 mg daily am dose, Mean row covers all on-treatment days (pre mean 90)): 120 min | effect on sleep or constipation ([4]; 150 mg daily at bedtime): without effect | arms and legs thrashing in the night [4, 7]: stopped thrashing | bowels [4, 7]: regularized almost immediately | delay in sleep onset (I-button) ([4]; 150 mg, FIG. 8C): 1 h | delay in sleep onset (I-button) ([4]; 150 mg, FIG. 8D): 0.5 h | Sleep efficiency ([4]; On treatment (Pre-treatment 74)): 82% | Fragments awake during night ([4]; On treatment (Pre-treatment 90)): 56 min | Delay in falling asleep ([4]; On treatment (Pre-treatment 146)): 60 min | diurnal rhythm (I-button, periodogram, FIG. 12) ([4]; several months into treatment): clearly been restored | speed of the colonic peristaltic wave ([5]; WT colon, FIG. 14B): stimulates the speed of the colonic peristaltic wave | force of peristaltic contractions ([5]; WT colon, squalamine added to lumen, FIG. 14A): increases the force of contractions | colon migrating motor complex (MMC) peak pressure waves ([5]; intraluminal application, legend of FIG. 14A): no apparent effect | MMC propagation velocity from oral to anal ([5]; intraluminal application, legend of FIG. 14B): increased | speed of the colonic peristaltic wave ([6]; FIG. 14B): normalizing the PD colon to that of the unstimulated WT mouse | force of peristaltic contractions ([6]; squalamine added to lumen, FIG. 14A): increases the force of contractions | muscle paralysis ([2]; C. elegans model of PD (Perni et al. 2017)): complete reversal of muscle paralysis
